Tests used:
Format in all cases: in vivo
Spodoptera littoralis = Spodoptera littoralis (Egyptian cotton leaf worm) cotton leaf disc test; details: foliar, 72 h, read-out: control (at least one of mortality, anti-feedant effect, and growth inhibition)
Method in brief: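 Five first-instar larvae per disc were placed on dried, sprayed cotton leaf discs held on agar. Test solutions were aqueous, made from 10′000 ppm DMSO stocks. At day 3, control was counted when mortality, feeding deterrence or growth inhibition exceeded the untreated discs.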

Myzus persicae = Myzus persicae (green peach aphid) sunflower leaf disc test; details: foliar, 144 h
Description: Myzus persicae (Green Peach Aphid):
Sunflower leaf discs were placed on agar in a 24-well microtiter plate and sprayed with test solutions at an application rate of 200 ppm. After drying, the leaf discs were infested with an aphid population of mixed ages. After an incubation period of 6 days after treatment, samples were checked for mortality. The following compounds gave at least 80% mortality of Myzus persicae: […]

Thrips tabaci = Thrips tabaci (onion thrips) sunflower leaf disc test; details: foliar, 144 h
Description: Thrips tabaci (Onion Thrips):
(§1) Sunflower leaf discs were placed on agar in 24-well microtiter plates and sprayed with aqueous test solutions prepared from 10′000 ppm DMSO stock solutions. After drying the leaf discs were infested with a thrips population of mixed ages. The samples were assessed for mortality 6 days after infestation.

Plutella xylostella = Plutella xylostella (diamond back moth) artificial diet test; details: 120 h, read-out: effect in at least one of the two categories (mortality or growth inhibition)
Method in brief: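 At a 200 ppm rate, test solutions were applied to artificial diet and allowed to dry before second-instar larvae were added. Five days later, larval mortality and growth inhibition were rated against untreated samples.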

Diabrotica Balteata = experiment: Diabrotica balteata (corn root worm) maize sprout test; details: 96 h, read-out: effect in at least one of the two categories (mortality or growth inhibition)
Method in brief: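 Scoring covered both mortality and growth inhibition relative to untreated controls, 4 days post-infestation. Test solutions at 200 ppm, diluted in water from 10′000 ppm DMSO stocks, were sprayed onto agar-held maize sprouts, which after drying received 6 to 10 L2 larvae each well.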

Tetranychus urticae = Tetranychus urticae (two-spotted spider mite) bean leaf disc test; details: foliar, 192 h
Description: Tetranychus urticae (Two-Spotted Spider Mite):
as §1, with “Bean” for “Sunflower”, “discs” for “discs were placed”, “were” for “and”, “mite” for “thrips”, “on mixed population (mobile stages) 8” for “6”

Cc1cc(C2=NO[C@@](c3cc(Cl)cc(Cl)c3)(C(F)(F)F)C2)ccc1C(=O)N[C@@H]1CC(OCC(F)(F)F)=NO1 (single isomer, unassigned) [Compound A156]
≥ 80%: percent control (mortality, anti-feedant effect or growth inhibition) at 200 ppm (Spodoptera littoralis) | mortality at 200 ppm (Myzus persicae) | mortality at 200 ppm (Thrips tabaci) | percent effect (mortality or growth inhibition) at 200 ppm (Plutella xylostella) | percent effect (mortality or growth inhibition) at 200 ppm (Diabrotica Balteata) | mortality at 200 ppm (Tetranychus urticae)

Cc1cc(C2=NO[C@@](c3cc(Cl)c(F)c(Cl)c3)(C(F)(F)F)C2)ccc1C(=O)NC1CC(OC2CCC2)=NO1 (stereo partly drawn) [Compound A079]
≥ 80%: percent control (mortality, anti-feedant effect or growth inhibition) at 200 ppm (Spodoptera littoralis) | mortality at 200 ppm (Myzus persicae) | mortality at 200 ppm (Thrips tabaci) | percent effect (mortality or growth inhibition) at 200 ppm (Plutella xylostella) | percent effect (mortality or growth inhibition) at 200 ppm (Diabrotica Balteata) | mortality at 200 ppm (Tetranychus urticae)

COC1=NOC(NC(=O)c2ccc(C3=NO[C@@](c4cc(Cl)cc(C(F)(F)F)c4)(C(F)(F)F)C3)cc2C)C1 (stereo partly drawn) [Compound A042]
≥ 80%: percent control (mortality, anti-feedant effect or growth inhibition) at 200 ppm (Spodoptera littoralis) | mortality at 200 ppm (Myzus persicae) | mortality at 200 ppm (Thrips tabaci) | percent effect (mortality or growth inhibition) at 200 ppm (Plutella xylostella) | percent effect (mortality or growth inhibition) at 200 ppm (Diabrotica Balteata) | mortality at 200 ppm (Tetranychus urticae)

CCSC1=NOC(NC(=O)c2ccc(C3=NO[C@@](c4cc(Cl)cc(C(F)(F)F)c4)(C(F)(F)F)C3)cc2C)C1 (stereo partly drawn) [Compound A051]
≥ 80%: percent control (mortality, anti-feedant effect or growth inhibition) at 200 ppm (Spodoptera littoralis) | mortality at 200 ppm (Myzus persicae) | mortality at 200 ppm (Thrips tabaci) | percent effect (mortality or growth inhibition) at 200 ppm (Plutella xylostella) | percent effect (mortality or growth inhibition) at 200 ppm (Diabrotica Balteata) | mortality at 200 ppm (Tetranychus urticae)

CCC1=NOC(NC(=O)c2ccc(C3=NO[C@@](c4cc(Cl)c(F)c(Cl)c4)(C(F)(F)F)C3)cc2C)C1 (stereo partly drawn) [Compound A026, 4-[(5S)-5-(3,5-dichloro-4-fluoro-phenyl)-5-(trifluoromethyl)-4H-isoxazol-3-yl]-N-(3-ethyl-4,5-dihydroisoxazol-5-yl)-2-methyl-benzamide]
≥ 80%: percent control (mortality, anti-feedant effect or growth inhibition) at 200 ppm (Spodoptera littoralis) | mortality at 200 ppm (Myzus persicae) | mortality at 200 ppm (Thrips tabaci) | percent effect (mortality or growth inhibition) at 200 ppm (Plutella xylostella) | percent effect (mortality or growth inhibition) at 200 ppm (Diabrotica Balteata) | mortality at 200 ppm (Tetranychus urticae)

Cc1cc(C2=NO[C@@](c3cc(Cl)c(Cl)c(Cl)c3)(C(F)(F)F)C2)ccc1C(=O)NC1CC(OCC2(C)COC2)=NO1 (stereo partly drawn) [Compound A123, 2-methyl-N-[3-[(3-methyloxetan-3-yl)methoxy]-4,5-dihydroisoxazol-5-yl]-4-[(5S)-5-(3,4,5-trichlorophenyl)-5-(trifluoromethyl)-4H-isoxazol-3-yl]benzamide]
≥ 80%: percent control (mortality, anti-feedant effect or growth inhibition) at 200 ppm (Spodoptera littoralis) | mortality at 200 ppm (Myzus persicae) | mortality at 200 ppm (Thrips tabaci) | percent effect (mortality or growth inhibition) at 200 ppm (Plutella xylostella) | percent effect (mortality or growth inhibition) at 200 ppm (Diabrotica Balteata) | mortality at 200 ppm (Tetranychus urticae)

CO/N=C(\C)COC1=NOC(NC(=O)c2ccc(C3=NO[C@@](c4cc(Cl)c(Cl)c(Cl)c4)(C(F)(F)F)C3)cc2C)C1 (stereo partly drawn) [Compound A116, N-[3-[(2E)-2-methoxyiminopropoxy]-4,5-dihydroisoxazol-5-yl]-2-methyl-4-[(5S)-5-(3,4,5-trichlorophenyl)-5-(trifluoromethyl)-4H-isoxazol-3-yl]benzamide]
≥ 80%: percent control (mortality, anti-feedant effect or growth inhibition) at 200 ppm (Spodoptera littoralis) | mortality at 200 ppm (Myzus persicae) | mortality at 200 ppm (Thrips tabaci) | percent effect (mortality or growth inhibition) at 200 ppm (Plutella xylostella) | percent effect (mortality or growth inhibition) at 200 ppm (Diabrotica Balteata) | mortality at 200 ppm (Tetranychus urticae)

Cc1cc(C2=NO[C@@](c3cc(Cl)c(F)c(Cl)c3)(C(F)(F)F)C2)ccc1C(=O)NC1CC(Oc2ccc(Cl)cc2)=NO1 (stereo partly drawn) [Compound A108, N-[3-(4-chlorophenoxy)-4,5-dihydroisoxazol-5-yl]-4-[(5S)-5-(3,5-dichloro-4-fluoro-phenyl)-5-(trifluoromethyl)-4H-isoxazol-3-yl]-2-methyl-benzamide]
≥ 80%: percent control (mortality, anti-feedant effect or growth inhibition) at 200 ppm (Spodoptera littoralis) | mortality at 200 ppm (Myzus persicae) | mortality at 200 ppm (Thrips tabaci) | percent effect (mortality or growth inhibition) at 200 ppm (Plutella xylostella) | percent effect (mortality or growth inhibition) at 200 ppm (Diabrotica Balteata) | mortality at 200 ppm (Tetranychus urticae)

Cc1cc(C2=NO[C@@](c3cc(Cl)c(Cl)c(Cl)c3)(C(F)(F)F)C2)ccc1C(=O)NC1CC(Cl)=NO1 (stereo partly drawn) [Compound A013, N-(3-chloro-4,5-dihydroisoxazol-5-yl)-2-methyl-4-[(5S)-5-(3,4,5-trichlorophenyl)-5-(trifluoromethyl)-4H-isoxazol-3-yl]benzamide]
≥ 80%: percent control (mortality, anti-feedant effect or growth inhibition) at 200 ppm (Spodoptera littoralis) | mortality at 200 ppm (Myzus persicae) | mortality at 200 ppm (Thrips tabaci) | percent effect (mortality or growth inhibition) at 200 ppm (Plutella xylostella) | percent effect (mortality or growth inhibition) at 200 ppm (Diabrotica Balteata) | mortality at 200 ppm (Tetranychus urticae)

CC1=NOC(NC(=O)c2ccc(C3=NO[C@@](c4cc(Cl)c(Cl)c(Cl)c4)(C(F)(F)F)C3)cc2C)C1 (stereo partly drawn) [Compound A027, 2-methyl-N-(3-methyl-4,5-dihydroisoxazol-5-yl)-4-[(5S)-5-(3,4,5-trichlorophenyl)-5-(trifluoromethyl)-4H-isoxazol-3-yl]benzamide]
≥ 80%: percent control (mortality, anti-feedant effect or growth inhibition) at 200 ppm (Spodoptera littoralis) | mortality at 200 ppm (Myzus persicae) | mortality at 200 ppm (Thrips tabaci) | percent effect (mortality or growth inhibition) at 200 ppm (Plutella xylostella) | percent effect (mortality or growth inhibition) at 200 ppm (Diabrotica Balteata) | mortality at 200 ppm (Tetranychus urticae)

CCCCOC1=NOC(NC(=O)c2ccc(C3=NO[C@@](c4cc(Cl)c(F)c(Cl)c4)(C(F)(F)F)C3)cc2C)C1 (stereo partly drawn) [Compound A104]
≥ 80%: percent control (mortality, anti-feedant effect or growth inhibition) at 200 ppm (Spodoptera littoralis) | mortality at 200 ppm (Myzus persicae) | mortality at 200 ppm (Thrips tabaci) | percent effect (mortality or growth inhibition) at 200 ppm (Plutella xylostella) | percent effect (mortality or growth inhibition) at 200 ppm (Diabrotica Balteata) | mortality at 200 ppm (Tetranychus urticae)

CCOC1=NOC(NC(=O)c2ccc(C3=NO[C@@](c4cc(Cl)c(Cl)c(Cl)c4)(C(F)(F)F)C3)cc2C)C1 (stereo partly drawn) [Compound A059]
≥ 80%: percent control (mortality, anti-feedant effect or growth inhibition) at 200 ppm (Spodoptera littoralis) | mortality at 200 ppm (Myzus persicae) | mortality at 200 ppm (Thrips tabaci) | percent effect (mortality or growth inhibition) at 200 ppm (Plutella xylostella) | percent effect (mortality or growth inhibition) at 200 ppm (Diabrotica Balteata) | mortality at 200 ppm (Tetranychus urticae)

Cc1cc(C2=NO[C@@](c3cc(Cl)c(Cl)c(Cl)c3)(C(F)(F)F)C2)ccc1C(=O)NC1CC(OCC(F)(F)F)=NO1 (stereo partly drawn) [Compound A129, 2-methyl-4-[(5S)-5-(3,4,5-trichlorophenyl)-5-(trifluoromethyl)-4H-isoxazol-3-yl]-N-[3-(2,2,2-trifluoroethoxy)-4,5-dihydroisoxazol-5-yl]benzamide]
≥ 80%: percent control (mortality, anti-feedant effect or growth inhibition) at 200 ppm (Spodoptera littoralis) | mortality at 200 ppm (Myzus persicae) | mortality at 200 ppm (Thrips tabaci) | percent effect (mortality or growth inhibition) at 200 ppm (Plutella xylostella) | percent effect (mortality or growth inhibition) at 200 ppm (Diabrotica Balteata) | mortality at 200 ppm (Tetranychus urticae)

CC1=NOC(N(C=O)C(=O)c2ccc(C3=NO[C@@](c4cc(Cl)c(Cl)c(Cl)c4)(C(F)(F)F)C3)cc2C)C1 (stereo partly drawn) [Compound A023, N-formyl-2-methyl-N-(3-methyl-4,5-dihydroisoxazol-5-yl)-4-[(5S)-5-(3,4,5-trichlorophenyl)-5-(trifluoromethyl)-4H-isoxazol-3-yl]benzamide]
≥ 80%: percent control (mortality, anti-feedant effect or growth inhibition) at 200 ppm (Spodoptera littoralis) | mortality at 200 ppm (Myzus persicae) | mortality at 200 ppm (Thrips tabaci) | percent effect (mortality or growth inhibition) at 200 ppm (Plutella xylostella) | percent effect (mortality or growth inhibition) at 200 ppm (Diabrotica Balteata) | mortality at 200 ppm (Tetranychus urticae)

CC1=NOC(N(C=O)C(=O)c2ccc(C3=NO[C@@](c4cc(Cl)cc(Cl)c4)(C(F)(F)F)C3)cc2C)C1 (stereo partly drawn) [Compound A140]
≥ 80%: percent control (mortality, anti-feedant effect or growth inhibition) at 200 ppm (Spodoptera littoralis) | mortality at 200 ppm (Myzus persicae) | mortality at 200 ppm (Thrips tabaci) | percent effect (mortality or growth inhibition) at 200 ppm (Plutella xylostella) | percent effect (mortality or growth inhibition) at 200 ppm (Diabrotica Balteata) | mortality at 200 ppm (Tetranychus urticae)

Cc1cc(C2=NO[C@@](c3cc(Cl)cc(Cl)c3)(C(F)(F)F)C2)ccc1C(=O)N[C@@H]1CC(C(F)(F)F)=NO1 (single isomer, unassigned) [Compound A154]
≥ 80%: percent control (mortality, anti-feedant effect or growth inhibition) at 200 ppm (Spodoptera littoralis) | mortality at 200 ppm (Myzus persicae) | mortality at 200 ppm (Thrips tabaci) | percent effect (mortality or growth inhibition) at 200 ppm (Plutella xylostella) | percent effect (mortality or growth inhibition) at 200 ppm (Diabrotica Balteata) | mortality at 200 ppm (Tetranychus urticae)

CC1=NOC(NC(=O)c2ccc(C3=NO[C@@](c4cc(Cl)c(Cl)c(Cl)c4)(C(F)(F)F)C3)cc2Cl)C1 (stereo partly drawn) [Compound A025, 2-chloro-N-(3-methyl-4,5-dihydroisoxazol-5-yl)-4-[(5S)-5-(3,4,5-trichlorophenyl)-5-(trifluoromethyl)-4H-isoxazol-3-yl]benzamide]
≥ 80%: percent control (mortality, anti-feedant effect or growth inhibition) at 200 ppm (Spodoptera littoralis) | mortality at 200 ppm (Myzus persicae) | mortality at 200 ppm (Thrips tabaci) | percent effect (mortality or growth inhibition) at 200 ppm (Plutella xylostella) | percent effect (mortality or growth inhibition) at 200 ppm (Diabrotica Balteata) | mortality at 200 ppm (Tetranychus urticae)
